Test results taken from patent publication US9234025B2, “Extracellular allosteric inhibitor binding domain from a tyrosine kinase receptor” (SANOFI, priority 2009, dated 2016).

How the values were obtained:
PANC02 cells = test: PANC02 proliferation; format: cell-based; settings: 100 nM SSR; 100 ng/ml FGF7 with or without VEGF; FGFR2-IIIb
Description: Cell proliferation was analysed on exponentially growing cells that were starved for 16 hours in 100 μl RPMI 1640 (Invitrogen, 32404-014) with 0.2% FBS (Hyclone, SH30070.03), 2 mM glutamine, MEM non-essential amino-acid 1× (Gibco, 11140-035), MEM sodium pyruvate 1× (Gibco, 11360-039) and seeded at 4,000 cells/well in 96-well microplates. After exposure to mitogens and/or SSR for 72 hours, cell proliferation was assessed with the use of the CellTiter 96 AQueous One Solution Cell Proliferation Assay (Promega, Madison, Wis., USA) according to manufacturer's instructions. Cell migration was assessed by a modified Boyden chamber assay, by using 24-well inserts containing 8 μm pore size transwell permeable supports with a polycarbonate membrane (Costar, Corning Inc.). Exponentially growing cells were starved in 0.2% FBS containing medium for 16 hours and resuspended at 5×10^5 cells/ml in the same low serum medium. 100 μl of the cell suspension were seeded in the upper chamber, while chemoattractants and/or SSR were placed in the lower chamber. 10% FBS containing medium was used a positive control. After 6 hours incubation at 37° C., cells on the upper side of the membrane were scraped using a cotton swab, while migrated cells on the lower surface were fixed with 4% formaldehyde and nuclei stained with DAPI for quantification.

FGFR2^∂23 = target: T1, FGFR2^∂23 (Homo sapiens, UniProt P21802); test: isothermal titration calorimetry (ITC), FGFR2; format: binding
T1 construct: FGFR2^∂23 (consisting of domain D2 and 3); made in house
Description: All calorimetric experiments were performed at 30° C. with a VP-ITC titration calorimeter (MicroCal Inc., Northampton, Mass.) as previously described^45. Titrations involved the addition of 10 μL aliquots of 1.25 mM SSR via a rotating stirrer-syringe to the solution cell containing 1.407 mL of the 10-20 μM interacting protein (i.e. FGFR2^∂123, FGFR2^∂23 and its described mutants and subdomains, FGFR3^∂123, FGF1, FGF2 and Follistatin (as negative control) at 4 min intervals. A constant stirring speed of 300 rpm was maintained and data were fitted to the standard noninteracting one site model supplied by MicroCal, with n fixed as 1.0. All measurements were performed in 10 mM HEPES pH7.2, 150 mM NaCl, and proteins were purified as previously described (Pellegrini et al., 2000). Mutagenesis was performed using the ‘site directed mutagenesis kit’ (Stratagene).

T1 sequence (P21802 148-366 limits assumed): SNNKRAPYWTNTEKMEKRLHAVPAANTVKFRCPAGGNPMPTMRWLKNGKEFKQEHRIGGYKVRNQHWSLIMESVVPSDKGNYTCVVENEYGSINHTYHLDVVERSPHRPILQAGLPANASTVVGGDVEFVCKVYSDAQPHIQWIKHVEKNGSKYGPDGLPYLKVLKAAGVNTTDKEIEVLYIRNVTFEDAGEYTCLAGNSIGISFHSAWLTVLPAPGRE

## COc1c(C)c(C(=O)c2ccc(N)c(C(=O)[O-])c2)n2ccccc12.[Na+] [SSR]
PANC02 cells
  FGF7-induced PANC02 proliferation: blocked
FGFR2^∂23
  binding to FGFR2: bound
